The experiment addresses T1, Human (6-His)Sortilin (Homo sapiens, UniProt Q99523).
T1 construct: purchased RnD Systems
T1 sequence (Q99523 78-755 limits assumed): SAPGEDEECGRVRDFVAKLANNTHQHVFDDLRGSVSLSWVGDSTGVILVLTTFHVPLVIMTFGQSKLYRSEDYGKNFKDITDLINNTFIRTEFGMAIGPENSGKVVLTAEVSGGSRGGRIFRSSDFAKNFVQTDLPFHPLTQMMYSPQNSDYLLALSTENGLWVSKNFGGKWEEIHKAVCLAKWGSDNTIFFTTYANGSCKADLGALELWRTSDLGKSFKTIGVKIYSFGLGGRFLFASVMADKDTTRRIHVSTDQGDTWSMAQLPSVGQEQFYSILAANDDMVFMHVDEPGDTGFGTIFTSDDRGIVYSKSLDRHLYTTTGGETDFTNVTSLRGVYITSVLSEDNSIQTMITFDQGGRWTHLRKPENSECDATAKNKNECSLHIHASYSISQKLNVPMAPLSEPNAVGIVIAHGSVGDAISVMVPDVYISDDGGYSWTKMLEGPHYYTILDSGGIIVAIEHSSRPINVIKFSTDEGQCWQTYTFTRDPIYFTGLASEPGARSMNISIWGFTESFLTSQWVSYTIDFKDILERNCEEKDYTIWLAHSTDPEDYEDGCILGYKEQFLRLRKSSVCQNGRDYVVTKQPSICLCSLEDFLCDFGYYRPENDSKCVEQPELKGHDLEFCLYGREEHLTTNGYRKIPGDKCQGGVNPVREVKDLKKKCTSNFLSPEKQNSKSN
The experiment in a line: Human Sortilin GCI (Grating-Coupled Interferometry) binding assay. The following applies: Creoptix WAVE-RAPID, single concentration (usually 1 µM, 10 µM or 100 µM), immobilised Human (6-His)Sortilin, 1:1 kinetic binding model.
For `CC(C)(C)CC(Nc1cccnc1)c1nn[nH]n1` (racemic) [Example 62, N-3-pyridyl[3,3-dimethyl-1-(2H-tetraazol-5-yl)butyl]amine], the Kd worked out at 32.1 µM. To `Cc1ccc2ncnc(NC(CCC(C)(C)C)c3nn[nH]n3)c2c1` (racemic) [Example 83, [4,4-dimethyl-1-(2H-tetraazol-5-yl)pentyl](6-methyl-4-quinazolinyl)amine] belongs 0.251 µM; to `CC(C)CC(Nc1ncccn1)c1nn[nH]n1` (racemic) [Example 65, [3-methyl-1-(2H-tetraazol-5-yl)butyl]-2-pyrimidinylamine], 98.6 µM; to `CC(C)(C)CC(Nc1cncc2ccccc12)c1nn[nH]n1` (racemic) [Example 48, [3,3-dimethyl-1-(2H-tetraazol-5-yl)butyl]-4-isoquinolylamine], 2.47 µM. `CC(C)CC(Nc1cncnc1)c1nn[nH]n1` (racemic) [Example 49, [3-methyl-1-(2H-tetraazol-5-yl)butyl]-5-pyrimidinylamine] came in with a Kd of 98 µM. To `CC(C)(C)CCC(Nc1ncnc2cc(Br)ccc12)c1nn[nH]n1` (racemic) [Example 90, [4,4-dimethyl-1-(2H-tetraazol-5-yl)pentyl](7-bromo-4-quinazolinyl)amine] belongs 0.284 µM. To `CC(C)CCC(Nc1ncnc2ccccc12)c1nnn[nH]1` (racemic) [Example 101, N-(4-methyl-1-(1H-tetrazol-5-yl)pentyl)quinazolin-4-amine] belongs 18.3 µM; to `Cn1ccc2cc(NC(CCC(C)(C)C)c3nn[nH]n3)cnc21` (racemic) [Example 53, [4,4-dimethyl-1-(2H-tetraazol-5-yl)pentyl](1-methyl-1H-1,7-diazainden-5-yl)amine], 0.735 µM.

Compound “N-phenyl[4,4-dimethyl-1-(2H-tetraazol-5-yl)pentyl]amine [Example 39]” showed a Kd of 2.84 µM. To `CC(C)CCC(Nc1cccc2ccccc12)c1nn[nH]n1` (racemic) [Example 38, [4-methyl-1-(2H-tetraazol-5-yl)pentyl]-1-naphthylamine] belongs 8.75 µM; to `CC(C)CC(Nc1cc2ccccc2cn1)c1nn[nH]n1` (racemic) [Example 42, [3-methyl-1-(2H-tetraazol-5-yl)butyl]-3-isoquinolylamine], 3.17 µM.

The compound `CC(C)(C)CC[C@@H](Nc1cccnc1)c1nn[nH]n1` (single isomer, unassigned) [Example 100] showed a dissociation constant (Kd) of 6.22 µM. For the compound `CC(C)CC(Nc1ccc2ccccc2n1)c1nn[nH]n1` (racemic) [Example 40, [3-methyl-1-(2H-tetraazol-5-yl)butyl]-2-quinolylamine], binding was characterised by a dissociation constant (Kd) of 22 µM. Turning to `CC(C)CCC(Nc1cncc2ccccc12)c1nn[nH]n1` (racemic) [Example 64, [4-methyl-1-(2H-tetraazol-5-yl)pentyl]-4-isoquinolylamine], the affinity, expressed as Kd, was 8.71 µM.

For the compound `Cc1ccc2ncnc(NC(CCC(C)C)c3nn[nH]n3)c2c1` (racemic) [Example 80, [4-methyl-1-(2H-tetraazol-5-yl)pentyl](6-methyl-4-quinazolinyl)amine], binding was characterised by a dissociation constant (Kd) of 3.88 µM. With `Cn1ccc2cc(NC(CC(C)(C)C)c3nn[nH]n3)cnc21` (racemic) [Example 52, [3,3-dimethyl-1-(2H-tetraazol-5-yl)butyl](1-methyl-1H-1,7-diazainden-5-yl)amine], the Kd was 3.25 µM. As to `CC(C)(C)CC[C@@H](Nc1ccc2ccccc2n1)c1nn[nH]n1` (single isomer, unassigned) [Example 95], the Kd was found to be 6.07 µM. To `CC(C)CC(Nc1cncc2ccccc12)c1nn[nH]n1` (racemic) [Example 46, [3-methyl-1-(2H-tetraazol-5-yl)butyl]-4-isoquinolylamine] belongs 3.78 µM. To `CC(C)CC(Nc1ccncc1)c1nnn[nH]1` (racemic) [Example 104, N-(3-methyl-1-(1H-tetrazol-5-yl)butyl)pyridin-4-amine] belongs 74.2 µM. Compound `CC(C)CCC(Nc1ncccn1)c1nn[nH]n1` (racemic) [Example 57, N-2-pyrimidinyl[4-methyl-1-(2H-tetraazol-5-yl)pentyl]amine] gave a Kd of 123 µM. To `CC(C)(C)CC(Nc1cc2ccccc2cn1)c1nn[nH]n1` (racemic) [Example 60, [3,3-dimethyl-1-(2H-tetraazol-5-yl)butyl]-3-isoquinolylamine] belongs 5.9 µM; to `CC(C)(C)CC[C@H](Nc1cncc2ccccc12)C(=O)O` [Example 29, (S)-2-(isoquinolin-4-ylamino)-5,5-dimethylhexanoic acid], 0.0578 µM. To `CC(C)(C)CC[C@H](Nc1cccnc1)c1nn[nH]n1` (single isomer, unassigned) [Example 99] belongs 1.56 µM.

`CC(C)(C)CC[C@H](Nc1ccc2ccccc2n1)c1nn[nH]n1` (single isomer, unassigned) [Example 96] gave a Kd of 0.912 µM. To `CC(C)CCC(Nc1cnc2ccccc2c1)c1nn[nH]n1` (racemic) [Example 55, [4-methyl-1-(2H-tetraazol-5-yl)pentyl]-3-quinolylamine] belongs 10.5 µM; to `CC(C)CC(Nc1ccccn1)c1nn[nH]n1` (racemic) [Example 66, [3-methyl-1-(2H-tetraazol-5-yl)butyl]-2-pyridylamine], 179 µM; to `CC(C)(C)CC(Nc1cncnc1)c1nn[nH]n1` (racemic) [Example 50, N-5-pyrimidinyl[3,3-dimethyl-1-(2H-tetraazol-5-yl)butyl]amine], 28 µM. To `CC(C)CC(Nc1ccncn1)c1nn[nH]n1` (racemic) [Example 105, [3-methyl-1-(2H-tetraazol-5-yl)butyl]-4-pyrimidinylamine] belongs 187 µM; to `CC(C)CC(Nc1cnc2ccccc2c1)c1nn[nH]n1` (racemic) [Example 56, [3-methyl-1-(2H-tetraazol-5-yl)butyl]-3-quinolylamine], 44.9 µM; to `CC(C)(C)CCC(Nc1ncccn1)c1nn[nH]n1` (racemic) [Example 47, N-2-pyrimidinyl[4,4-dimethyl-1-(2H-tetraazol-5-yl)pentyl]amine], 7.82 µM. `CC(C)CC(Nc1ncnc2ccccc12)c1nn[nH]n1` (racemic) [Example 103, [3-methyl-1-(2H-tetraazol-5-yl)butyl]-4-quinazolinylamine]: the Kd is 25.5 µM. Consider `CC(C)(C)CC(Nc1ccccc1)c1nn[nH]n1` (racemic) [Example 43, N-phenyl[3,3-dimethyl-1-(2H-tetraazol-5-yl)butyl]amine], for which the Kd stood at 17.7 µM. To `Cc1ccc2c(NC(CCC(C)(C)C)c3nn[nH]n3)ncnc2c1` (racemic) [Example 84, [4,4-dimethyl-1-(2H-tetraazol-5-yl)pentyl](7-methyl-4-quinazolinyl)amine] belongs 0.461 µM. To `CC(C)(C)CCC(Nc1ncnc2ccc(C(F)(F)F)cc12)c1nn[nH]n1` (racemic) [Example 86, [4,4-dimethyl-1-(2H-tetraazol-5-yl)pentyl][6-(trifluoromethyl)-4-quinazolinyl]amine] belongs 1.49 µM; to `CC(C)(C)CCC(Nc1ccc2ccccc2n1)c1nn[nH]n1` (racemic) [Example 34, [4,4-dimethyl-1-(2H-tetraazol-5-yl)pentyl]-2-quinolylamine], 1.83 µM.

The term Kd denotes the free concentration of one partner at which half of the binding sites on the other are occupied at equilibrium, for simple one-to-one binding. Low values mean higher affinity, high ones lower affinity.

These data come from EP4428121A1, “MODULATORS OF SORTILIN ACTIVITY” (Vesper Bio Aps, priority 2023, dated 2024).
